The values that follow come from ChEMBL document CHEMBL4619753, “Treating Cancer by Spindle Assembly Checkpoint Abrogation: Discovery of Two Clinical Candidates, BAY 1161909 and BAY 1217389, Targeting MPS1 Kinase” (J Med Chem, 2020).

Series [1] in a line: Dose normalized AUC in Wistar rat at 0.2 to 1 mg/kg, po measured up to 24 hrs by HPLC-MS-MS analysis. Conditions: in vivo. Type of series: ADME, organism-based.
For series [2], the system named is HeLa. Description: cells. Conditions: Homo sapiens, 96 h.
Description: Antiproliferative activity against human HeLa cells after 96 hrs by crystal violet staining based assay
The nature of series [3]: Oral bioavailability in Wistar rat at 0.2 to 1 mg/kg measured up to 24 hrs by HPLC-MS-MS analysis. Type of series: ADME, organism-based. The note with it: in vivo.
The nature of series [4]: Blood clearance in Beagle dog at 0.1 to 0.5 mg/kg administered as iv infusion measured up to 24 hrs by HPLC-MS-MS analysis. Type of series: ADME, organism-based, Canis lupus familiaris.
A short description of series [5]: Dose normalized AUC in Beagle dog at 0.2 to 1 mg/kg, po measured up to 24 hrs by HPLC-MS-MS analysis. Type of series: ADME, organism-based, Canis lupus familiaris. Conditions: in vivo.
Series [6] in a line: Volume of distribution at steady state in Wistar rat at 0.1 to 0.5 mg/kg, iv administered as bolus dose measured up to 24 hrs by HPLC-MS-MS analysis. Type of series: ADME, organism-based. Conditions: in vivo; for Vd: Wistar, read-out: Vdss.
The nature of series [7]: Volume of distribution at steady state in Beagle dog at 0.1 to 0.5 mg/kg administered as iv infusion measured up to 24 hrs by HPLC-MS-MS analysis. Type of series: ADME, organism-based, Canis lupus familiaris. Conditions: in vivo, read-out: Vdss.
Series [8] in a line: Blood clearance in Wistar rat at 0.1 to 0.5 mg/kg, iv administered as bolus dose measured up to 24 hrs by HPLC-MS-MS analysis. Type of series: ADME, organism-based.
A short description of series [9]: Oral bioavailability in Beagle dog at 0.2 to 1 mg/kg measured up to 24 hrs by HPLC-MS-MS analysis. The note with it: in vivo. Type of series: ADME, organism-based, Canis lupus familiaris.
Series [10] is described as follows: Half life in Wistar rat at 0.1 to 0.5 mg/kg, iv administered as bolus dose measured up to 24 hrs by HPLC-MS-MS analysis. Type of series: ADME, organism-based. Conditions: in vivo; for half-life: Wistar.
Series [11] can be described thus: Half life in Beagle dog at 0.1 to 0.5 mg/kg, administered as iv infusion measured up to 24 hrs by HPLC-MS-MS analysis. Type of series: ADME, organism-based, Canis lupus familiaris. Conditions: in vivo.
A short description of series [12]: Aqueous solubility of the compound. Conditions: buffer. Type of series: physicochemical.
Series [13] can be described thus: Lipophilicity, LogD of compound at pH 7.5 by reverse phase HPLC analysis. Type of series: physicochemical. The note with it: buffer.
Series [14] concerns HT-29. Description: cells. The note with it: Homo sapiens, HT-29, 96 h.
Description: Antiproliferative activity against human HT-29 cells after 96 hrs by crystal violet staining based assay

Some results are limits rather than exact numbers.

Regarding `CC(C)CNc1nccn2c(-c3ccc(C(=O)NC4CC4)cc3)cnc12`, the AUC/dose result in series [1] (BLD = below limit of detection) is “Bld”.
As usually defined, the IC50 is the concentration at which inhibition is half-maximal. Low readings indicate inhibition by little substance, high ones a need for much substance. Consider `CC(C)CNc1cc(-c2ccccc2)cc2c1ncn2-c1ccc(C(=O)NC2CC2)cc1`, for which the IC50 in [2] is 2.48 µM.
`CC(C)CNc1cccc2c1ncn2-c1ccc(C(=O)NC2CC2)cc1`: the IC50 in [2] is more than 10 µM.
By bioavailability is commonly meant dose-corrected exposure relative to a reference, in per cent. A high value points to much systemic uptake. In turn, `N#Cc1ccccc1Nc1nc2ccc(-c3ccc(NC(=O)Cc4ccccc4)cc3)cn2n1` gave an AUC/dose in [1] of 0.084 kg·h/L. This molecule also had a bioavailability in [3] of 12%. This molecule also came in with a half-inhibitory concentration (IC50) in series [2] of 0.695 µM.
By clearance is commonly meant the rate of elimination divided by the concentration. What is called half-life is the time needed for the level to fall by half in the phase considered. A low value points to rapid decline. As to `C=C(c1ccc(OC)c(F)c1)c1cc(NCCC(F)(F)F)c2ncc(-c3ccc(C(=O)NC4CC4)c(C)c3)n2n1`, the clearance in series [4] is 3.4 L/h/kg; in series [8], 0.87 L/h/kg. The AUC/dose is 0.005 kg·h/L in series [5] and 0.47 kg·h/L in series [1]. The bioavailability in series [3] was determined as 33%; in [9], 1.4%. For the same molecule, the Vd in series [6] is 2.1 L/kg; in [7], 2.6 L/kg. In addition, the half-life is 3.1 h in series [10] and 0.84 h in [11].
Regarding `COc1cc(S(C)(=O)=O)ccc1Nc1nc2ccc(-c3ccc(NC(=O)Cc4ccc(F)cc4)cc3)cn2n1`, the AUC/dose in [1] was determined as 0.98 kg·h/L. Besides, in series [3], the bioavailability was found to be 49%. The IC50 in series [2] came out at 0.246 µM.
For the molecule `COc1cc(C(=O)N2CC3(COC3)C2)ccc1Nc1nc2ccc(-c3ccc(NC(=O)Cc4ccc(F)cc4)cc3)cn2n1`, the AUC/dose in [1] stood at 0.049 kg·h/L. This molecule also registered a half-inhibitory concentration (IC50) in [2] of 0.085 µM.
Molecule `COc1cc(S(C)(=O)=O)ccc1Nc1nc2ccc(-c3ccc(NC(=O)[C@@H](C)c4ccc(F)cc4)cc3)cn2n1` came in with an IC50 in series [2] of 7 µM. That is a single-digit micromolar value.
Take `CC(C)CNc1nc(-c2ccccc2)nn2c(-c3ccc(C(=O)NC4CC4)cc3)cnc12`: the IC50 in series [2] is more than 10 µM.
As for `Cc1cc(-c2cnc3c(NCCC(F)(F)F)cc(C4(c5cc(F)ccc5O)CC4)nn23)ccc1C(=O)NC1CC1`, the clearance in [4] was 1.3 L/h/kg; in [8], 0.85 L/h/kg. Also, the AUC/dose in series [5] was 1.1 kg·h/L; in series [1] it was 0.76 kg·h/L. For the same molecule, the bioavailability in [3] is 45%; in series [9] it was 81%. Further, the Vd is 3.1 L/kg in [6] and 2.1 L/kg in series [7]. Also, the half-life was 4.7 h in series [10] and 2.1 h in [11].
Turning to `CC(C)CNc1cc(-c2ccccc2)nn2c(-c3ccc(C(=O)NC4CC4)cc3)cnc12`, 1.55 µM corresponded to half-maximal inhibition in series [2] (IC50).
Turning to `N#Cc1ccccc1Nc1nc2ccc(-c3ccc(NC(=O)Cc4ccc(F)cc4)cc3)cn2n1`, in series [1], the AUC/dose is 0.066 kg·h/L. The molecule further showed a bioavailability in series [3] of 6.6%. In series [2], this molecule registered an IC50 of 0.266 µM.
Molecule `COc1cc(C(=O)N2C[C@@H]3C[C@H]2CO3)ccc1Nc1nc2ccc(-c3ccc(NC(=O)Cc4ccc(F)cc4)cc3)cn2n1` had an AUC/dose in series [1] of 0.23 kg·h/L. The molecule further yielded a bioavailability in series [3] of 17%. The same molecule came in with an IC50 in series [2] of 0.05 µM.
`COc1cc(C(=O)N2CCOCC2)ccc1Nc1nc2ccc(-c3ccc(NC(=O)Cc4ccc(F)cc4)cc3)cn2n1` showed an AUC/dose in [1] of 0.81 kg·h/L. For the same molecule, the bioavailability in series [3] came to 20%. In series [2], this molecule came in with an IC50 of 0.14 µM.
For `CC(C)CNc1nc(-c2ccccc2)cc2c(-c3ccc(C(=O)NC4CC4)cc3)cnn12`, in series [2], inhibition was half-maximal at 7.73 µM (IC50). In other words, the single-digit micromolar range.
Take `O=C(Cc1ccc(F)cc1)Nc1ccc(-c2ccc3nc(Nc4ccc(C(=O)N5CCOCC5)cc4)nn3c2)cc1`: the IC50 in series [2] turned out to be 0.725 µM.
Take `COc1cc(S(C)(=O)=O)ccc1Nc1nc2ccc(-c3ccc(NC(=O)C4(c5ccc(F)cc5)CC4)cc3)cn2n1`: the IC50 in series [2] was more than 10 µM.
A word on the chromatographic logD: it is lipophilicity estimated from chromatographic retention. A high value points to higher lipophilicity. `O=C(Cc1ccc(F)cc1)Nc1ccc(-c2ccc3nc(Nc4ccc(C(=O)N5CCOCC5)cc4OCC(F)(F)F)nn3c2)cc1`: the IC50 in series [2] was determined as 0.026 µM. Further, in series [12], the solubility result is “Insoluble”. This molecule had a chromatographic logD in series [13] of 3.9.
`COc1cc(C(=O)N(C)C)ccc1Nc1nc2ccc(-c3ccc(NC(=O)Cc4ccc(F)cc4)cc3)cn2n1` came in with an IC50 in [2] of 0.2 µM.
For `CNC(=O)Nc1ccc(-c2cnc3c(NCC(C)C)nccn23)cc1`, the AUC/dose in series [1] stood at 4.9 kg·h/L. The bioavailability in [3] turned out to be 94%.
In series [1], `COc1ccccc1Nc1nc2ccc(-c3ccc(NC(=O)Cc4ccccc4)cc3)cn2n1` showed an AUC/dose of 0.066 kg·h/L. This molecule had a bioavailability in series [3] of 9%. In series [2], inhibition was half-maximal at 2.3 µM (IC50).
In [1], `COc1cc(N2CCOC2=O)ccc1Nc1nc2ccc(-c3ccc(NC(=O)Cc4ccc(F)cc4)cc3)cn2n1` returned an AUC/dose of 1.9 kg·h/L. This molecule registered a bioavailability in series [3] of 52%. The molecule further gave a half-maximal inhibitory concentration (IC50) in [2] of 0.12 µM.
On to `COc1cc(C(=O)N2CC(F)C2)ccc1Nc1nc2ccc(-c3ccc(NC(=O)[C@H](C)c4ccc(F)cc4)cc3)cn2n1`, for which the clearance was 0.59 L/h/kg in series [4] and 0.31 L/h/kg in series [8]. Besides, the AUC/dose in [5] is 0.64 kg·h/L; in [1], 1.8 kg·h/L. Also, the bioavailability was found to be 55% in series [3] and 39% in [9]. In series [2], this molecule had an IC50 of 0.057 µM. Moreover, the results for the Vd in series [6] and in series [7] were 2.1 L/kg and 5.2 L/kg, respectively. For the same molecule, the half-life is 5.3 h in [10] and 7 h in series [11].
The molecule `COc1ccccc1Nc1nc2ccc(-c3cc(C)c(O)c(C)c3)cn2n1` had an IC50 in series [2] of 5.9 µM.
For the molecule `COc1cc(C(=O)N2CC(F)C2)ccc1Nc1nc2ccc(-c3ccc(NC(=O)Cc4ccc(F)cc4)cc3)cn2n1`, in [2], the IC50 came out at 0.037 µM.
In general, Vdss refers to a proportionality between amount in the body and measured concentration, not a real space. A lower Vdss goes with little distribution into tissue. Molecule `COc1cc(N2CCOC2=O)ccc1Nc1nc2ccc(-c3ccc(NC(=O)[C@H](C)c4ccc(F)cc4)cc3)cn2n1` returned an AUC/dose in series [1] of 4.2 kg·h/L. In series [3], this molecule displayed a bioavailability of 49%. Further, it took 0.27 µM to reach half-maximal inhibition in [2] (IC50). For the same molecule, the Vdss in series [6] (24 h) came to 1.4 L/kg. For the same molecule, in series [10] (24 h), the t1/2 stood at 8 h.
`Cc1cc(-c2cnc3c(NCC(C)C)nccn23)ccc1C(=O)NC1CC1` came in with an AUC/dose in [1] of 0.22 kg·h/L. The same molecule yielded a bioavailability in series [3] of 20%.
`CCC(C(=O)Nc1ccc(-c2ccc3nc(Nc4ccc(S(C)(=O)=O)cc4OC)nn3c2)cc1)c1ccc(F)cc1` (racemic) displayed an IC50 in series [2] of 7.5 µM.
Turning to `COc1cc(S(C)(=O)=O)ccc1Nc1nc2ccc(-c3ccc(NC(=O)[C@H](C)c4ccc(F)cc4)cc3)cn2n1` [BAY-1161909], the values for the clearance in series [4] and in [8] were 1.4 L/h/kg and 0.19 L/h/kg, respectively. Also, the AUC/dose in series [5] is 0.52 kg·h/L; in [1] it was 3.3 kg·h/L. For the same molecule, the bioavailability in [3] amounted to 49%; in series [9], 63%. Also, the IC50 in series [2] was determined as 0.26 µM. The Vd in series [6] is 2.4 L/kg; in [7], 6.7 L/kg. The half-life is 14 h in series [10] and 6.3 h in [11].
On to `COc1ccc(Oc2cc(NCCC(F)(F)F)c3ncc(-c4ccc(C(=O)NC5CC5)c(C)c4)n3n2)c(F)c1F` [BAY-1217389], for which the AUC/dose in series [5] was 2.5 kg·h/L; in series [1], 2.4 kg·h/L. The bioavailability in [3] is 72%; in [9], 71%. Further, the Vd came out at 2.2 L/kg in series [6] and 3.9 L/kg in [7]. Moreover, the half-life was 7.8 h in [10] and 13 h in series [11].
In turn, `Cc1cc(-c2cnn3c(NC[C@H]4C[C@@](C)(O)C4)cc(Oc4cccnc4)nc23)ccc1C(=O)NC1CC1` [LUVIXASERTIB] came in with a half-inhibitory concentration (IC50) in [14] of 0.557 µM.
